# Source: publication PMC7413254 (Nature Communications, 2020)
# Test system: non-expressing oocytes
# Experiment: cells
# Type: cell-based, Xenopus laevis
# Procedure, shortened: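 Transport runs from the acidic bath into the cytosol, analogous to PfCRT-mediated efflux out of the vacuole. Non-expressing oocytes act as background.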
smiles,measurement,setting,value
"CCN(CC)CCCC(C)Nc1ccnc2cc(Cl)ccc12 (stereo not drawn) [CQ, chloroquine, reference compound]","[3H]CQ transport, non-expressing oocytes","0 mM Ca2+, Experiment 1",3.74 % PfCRTDd2 control
same,"[3H]CQ transport, non-expressing oocytes","0 mM Ca2+, Experiment 2",3.63 % PfCRTDd2 control
same,"[3H]CQ transport, non-expressing oocytes","0 mM Ca2+, Experiment 3",4.25 % PfCRTDd2 control
same,"[3H]CQ transport, non-expressing oocytes","0 mM Ca2+, Experiment 4",3.26 % PfCRTDd2 control
same,"[3H]CQ transport, non-expressing oocytes","0 mM Cl-, Experiment 1",4.15 % PfCRTDd2 control
same,"[3H]CQ transport, non-expressing oocytes","0 mM Cl-, Experiment 2",3.26 % PfCRTDd2 control
same,"[3H]CQ transport, non-expressing oocytes","0 mM Cl-, Experiment 3",3.11 % PfCRTDd2 control
same,"[3H]CQ transport, non-expressing oocytes","0 mM Cl-, Experiment 4",3.85 % PfCRTDd2 control
same,"[3H]CQ transport, non-expressing oocytes","0 mM Na+, Experiment 1",3.84 % PfCRTDd2 control
same,"[3H]CQ transport, non-expressing oocytes","0 mM Na+, Experiment 2",3.27 % PfCRTDd2 control
same,"[3H]CQ transport, non-expressing oocytes","0 mM Na+, Experiment 3",3.36 % PfCRTDd2 control
same,"[3H]CQ transport, non-expressing oocytes","0 mM Na+, Experiment 4",3.51 % PfCRTDd2 control
same,"[3H]CQ transport, non-expressing oocytes","1 mM Ca2+, Experiment 1",3.79 % PfCRTDd2 control
same,"[3H]CQ transport, non-expressing oocytes","1 mM Ca2+, Experiment 2",4.21 % PfCRTDd2 control
same,"[3H]CQ transport, non-expressing oocytes","1 mM Ca2+, Experiment 3",3.27 % PfCRTDd2 control
same,"[3H]CQ transport, non-expressing oocytes","1 mM Ca2+, Experiment 4",3.32 % PfCRTDd2 control
same,"[3H]CQ transport, non-expressing oocytes","3 mM Ca2+, Experiment 1",3.39 % PfCRTDd2 control
same,"[3H]CQ transport, non-expressing oocytes","3 mM Ca2+, Experiment 2",3.63 % PfCRTDd2 control
same,"[3H]CQ transport, non-expressing oocytes","3 mM Ca2+, Experiment 3",3.89 % PfCRTDd2 control
same,"[3H]CQ transport, non-expressing oocytes","3 mM Ca2+, Experiment 4",3.96 % PfCRTDd2 control
same,"[3H]CQ transport, non-expressing oocytes","5 mM Ca2+, Experiment 1",3.68 % PfCRTDd2 control
same,"[3H]CQ transport, non-expressing oocytes","5 mM Ca2+, Experiment 2",3.26 % PfCRTDd2 control
same,"[3H]CQ transport, non-expressing oocytes","5 mM Ca2+, Experiment 3",3.94 % PfCRTDd2 control
same,"[3H]CQ transport, non-expressing oocytes","5 mM Ca2+, Experiment 4",3.67 % PfCRTDd2 control
same,"[3H]CQ transport, non-expressing oocytes","Control, Experiment 1, Supp Fig. 2b",3.53 % PfCRTDd2 control
same,"[3H]CQ transport, non-expressing oocytes","Control, Experiment 1, Supp Fig. 2f",3.93 % PfCRTDd2 control
same,"[3H]CQ transport, non-expressing oocytes","Control, Experiment 1, Supp Fig. 2d",3.52 % PfCRTDd2 control
same,"[3H]CQ transport, non-expressing oocytes","Control, Experiment 2, Supp Fig. 2b",3.62 % PfCRTDd2 control
same,"[3H]CQ transport, non-expressing oocytes","Control, Experiment 2, Supp Fig. 2f",3.26 % PfCRTDd2 control
same,"[3H]CQ transport, non-expressing oocytes","Control, Experiment 2, Supp Fig. 2d",3.16 % PfCRTDd2 control
same,"[3H]CQ transport, non-expressing oocytes","Control, Experiment 3, Supp Fig. 2b",3.28 % PfCRTDd2 control
same,"[3H]CQ transport, non-expressing oocytes","Control, Experiment 3, Supp Fig. 2f",3.29 % PfCRTDd2 control
same,"[3H]CQ transport, non-expressing oocytes","Control, Experiment 3, Supp Fig. 2d",3.75 % PfCRTDd2 control
same,"[3H]CQ transport, non-expressing oocytes","Control, Experiment 4, Supp Fig. 2b",3.81 % PfCRTDd2 control
same,"[3H]CQ transport, non-expressing oocytes","Control, Experiment 4, Supp Fig. 2f",4.38 % PfCRTDd2 control
same,"[3H]CQ transport, non-expressing oocytes","Control, Experiment 4, Supp Fig. 2d",3.21 % PfCRTDd2 control
